# Earlier results as cited in paper PMC10329973 (Clinical pharmacology in drug development, 2023).
# What was measured:
# [1] = test system: depressed individuals; settings: study in depressed individuals; cited from earlier work
# [2] = test system: blood pressure; settings: cited from earlier work
SMILES,dissociative effects [1],off-target cardiovascular effects [2]
"C[C@@H]([C@@H](O)c1ccc(O)cc1)N1CCC(O)(c2ccccc2)CC1 [CP-101,606, traxoprodil]",ketamine-like dissociative effects were noted,–
Cc1ccc(COC(=O)N2CC[C@H](CNc3ncccn3)[C@H](F)C2)cc1 [MK-0657],–,increased blood pressure
